Measured values reported in patent US10047096B2, “Substituted pyridobenzodiazepinone-derivatives and use thereof” (Bayer Pharma Aktiengesellschaft, priority 2014, dated 2018).
pIC50: −log10 of the molar value.

Each compound was assayed against human PDGFRβ (Homo sapiens (Human), UniProt P09619) (assay: PDGFRβ kinase assay (PDGFRβ-HTRF)). Conditions: 10 μM ATP; some mean values from multiple determinations.
Type: biochemical
Description: The PDGFRβ-inhibitory activity of the inventive compounds was determined in the PDGFRβ-HTRF assay described hereinafter.
The kinase used was a recombinant fusion protein composed of N-terminal GST and a C-terminal fragment of human PDGFRβ (amino acids R561-L1106), expressed in baculovirus-infected insect cells (Sf9) and purified by affinity chromatography (from ProQinase GmbH, Freiburg, Germany). The substrate used for the kinase reaction was biotinylated poly-Glu,Tyr (4:1) copolymer (from Cisbio Bioassays, Codolet, France).
For the assay, 50 nl of a 100-fold concentrated solution of the test substance in DMSO was pipetted into a black “low-volume 384 well” microtitre plate (from Greiner Bio-One, Frickenhausen, Germany), then 2 μl of a solution of PDGFRβ in assay buffer [50 mM HEPES/NaOH pH 7.5, 10 mM MgCl2, 2.5 mM dithiothreitol, 0.01% (v/v) Triton-X100 (from Sigma)] was added and the mixture was incubated for 15 min, in order to enable preliminary binding of the substance to the enzyme before the kinase reaction. […] The resulting mixture was incubated at 22° C. for 1 h to allow formation of a complex of the biotinylated phosphorylated substrate and the detection reagents.
Subsequently, the amount of the phosphorylated substrate was evaluated by measuring the resonance energy transfer from the PT66-Eu chelate to the streptavidin-XL665. […] The IC50 values were calculated by a 4-parameter fit.

Sequence of human PDGFRβ (P09619 561-1106): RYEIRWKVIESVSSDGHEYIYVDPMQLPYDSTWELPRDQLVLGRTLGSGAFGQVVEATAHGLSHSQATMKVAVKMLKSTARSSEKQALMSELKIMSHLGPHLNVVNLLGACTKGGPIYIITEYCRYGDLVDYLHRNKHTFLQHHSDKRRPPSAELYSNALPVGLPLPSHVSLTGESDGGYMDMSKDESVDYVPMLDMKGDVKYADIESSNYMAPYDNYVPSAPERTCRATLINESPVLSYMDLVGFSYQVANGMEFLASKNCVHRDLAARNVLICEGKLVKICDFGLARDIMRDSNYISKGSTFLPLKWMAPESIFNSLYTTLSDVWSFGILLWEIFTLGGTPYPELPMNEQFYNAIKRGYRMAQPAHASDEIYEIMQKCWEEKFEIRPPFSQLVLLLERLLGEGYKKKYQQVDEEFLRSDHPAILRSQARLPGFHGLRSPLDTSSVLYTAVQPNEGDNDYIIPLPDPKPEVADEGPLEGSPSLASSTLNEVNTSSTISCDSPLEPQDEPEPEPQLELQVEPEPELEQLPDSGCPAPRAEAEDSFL

| SMILES | pIC50 |
| --- | --- |
| Cc1ccc(O)cc1Nc1ccnc2c1C(=O)Nc1cc(CNc3ccn(C)n3)ccc1N2 [Example 105] | 7.84 |
| N#Cc1ccc2c(c1)NC(=O)c1c(Nc3ccc(NS(=O)(=O)c4ccccc4)c(O)c3)ccnc1N2 [Example 6, N-{4-[(8-Cyano-5-oxo-6,11-dihydro-5H-pyrido[2,3-b][1,5]benzodiazepin-4-yl)amino]-2-hydroxyphenyl}benzenesulphonamide] | 6.16 |
| CCOC(=O)Nc1ccc(Nc2ccnc3c2C(=O)Nc2cc(C#N)ccc2N3)cc1O [Example 4, Ethyl {4-[(8-cyano-5-oxo-6,11-dihydro-5H-pyrido[2,3-b][1,5]benzodiazepin-4-yl)amino]-2-hydroxyphenyl}carbamate] | 6.45 |
| Cc1ccc(O)cc1Nc1ccnc2c1C(=O)Nc1cc(CNCCF)ccc1N2 [Example 126] | 8.65 |
| CNCc1ccc2c(c1)NC(=O)c1c(Nc3cc(O)ccc3C)ccnc1N2 [Example 22, 4-[(5-Hydroxy-2-methylphenyl)amino]-8-[(methylamino)methyl]-6,11-dihydro-5H-pyrido[2,3-b][1,5]benzodiazepin-5-one] | 8.55 |
| Cc1ccc(O)cc1Nc1ccnc2c1C(=O)Nc1cc(CN3CCN(C)CC3)ccc1N2 [Example 43, 4-[(5-Hydroxy-2-methylphenyl)amino]-8-[(4-methylpiperazin-1-yl)methyl]-6,11-dihydro-5H-pyrido[2,3-b][1,5]benzodiazepin-5-one] | 8.64 |
| N#Cc1ccc2c(c1)NC(=O)c1c(Nc3cc(O)ccc3F)ccnc1N2 [Example 13, 4-[(2-Fluoro-5-hydroxyphenyl)amino]-5-oxo-6,11-dihydro-5H-pyrido[2,3-b][1,5]benzodiazepine-8-carbonitrile] | 7.66 |
| Cc1ccc(O)cc1Nc1ccnc2c1C(=O)Nc1cc(CNCC3CCN(C(C)C)C3)ccc1N2 (stereo not shown) [Example 140] | 8.79 |
| Cc1cc(F)c(Nc2ccnc3c2C(=O)Nc2cc(CN4CCC(CO)C4)ccc2N3)cc1O (racemic) [Example 177, rac-4-[(2-Fluoro-5-hydroxy-4-methylphenyl)amino]-8-{[3-(hydroxymethyl)pyrrolidin-1-yl]methyl}-6,11-dihydro-5H-pyrido[2,3-b][1,5]benzodiazepin-5-one] | 8.77 |
| Cc1ccc(O)cc1Nc1ccnc2c1C(=O)Nc1cc(CN3CCN(CCO)CC3)ccc1N2 [Example 44, 8-{[4-(2-Hydroxyethyl)piperazin-1-yl]methyl}-4-[(5-hydroxy-2-methylphenyl)amino]-6,11-dihydro-5H-pyrido[2,3-b][1,5]benzodiazepin-5-one] | 7.70 |
| Cc1ccc(O)cc1Nc1ccnc2c1C(=O)Nc1cc(CNCc3cccc(F)c3)ccc1N2 [Example 120] | 8.83 |
| Cc1cc(F)c(Nc2ccnc3c2C(=O)Nc2cc(CNC[C@@H]4CCN(C(=O)OC(C)(C)C)C[C@H]4O)ccc2N3)cc1O [Example 176, tert-Butyl (3S,4S)-4-{[({4-[(2-fluoro-5-hydroxy-4-methylphenyl)amino]-5-oxo-6,11-dihydro-5H-pyrido[2,3-b][1,5]benzodiazepin-8-yl}methyl)amino]methyl}-3-hydroxypiperidine-1-carboxylate] | 8.46 |
| CCN(CCCO)Cc1ccc2c(c1)NC(=O)c1c(Nc3cc(O)c(C)cc3F)ccnc1N2 [Example 222, 8-{[Ethyl(3-hydroxypropyl)amino]methyl}-4-[(2-fluoro-5-hydroxy-4-methylphenyl)amino]-6,11-dihydro-5H-pyrido[2,3-b][1,5]benzodiazepin-5-one] | 9.00 |
| Cc1cc(F)c(Nc2ccnc3c2C(=O)Nc2cc(C(=O)N4CCCC(CCO)C4)ccc2N3)cc1O (racemic) [Example 179, rac-4-[(2-Fluoro-5-hydroxy-4-methylphenyl)amino]-8-{[3-(2-hydroxyethyl)piperidin-1-yl]carbonyl}-6,11-dihydro-5H-pyrido[2,3-b][1,5]benzodiazepin-5-one] | 7.84 |
| CCN(CCN)Cc1ccc2c(c1)NC(=O)c1c(Nc3cc(O)c(C)cc3F)ccnc1N2 [Example 200, 8-{[(2-Aminoethyl)(ethyl)amino]methyl}-4-[(2-fluoro-5-hydroxy-4-methylphenyl)amino]-6,11-dihydro-5H-pyrido[2,3-b][1,5]benzodiazepin-5-one] | 9.14 |
| CCCCNCc1ccc2c(c1)NC(=O)c1c(Nc3cc(O)ccc3C)ccnc1N2 [Example 23, 8-[(Butylamino)methyl]-4-[(5-hydroxy-2-methylphenyl)amino]-6,11-dihydro-5H-pyrido[2,3-b][1,5]benzodiazepin-5-one] | 8.53 |
| Cc1ccc(O)cc1Nc1ccnc2c1C(=O)Nc1cc(CNCCO)ccc1N2 [Example 24, 8-{[(2-Hydroxyethyl)amino]methyl}-4-[(5-hydroxy-2-methylphenyl)amino]-6,11-dihydro-5H-pyrido[2,3-b][1,5]benzodiazepin-5-one] | 8.32 |

| SMILES | pIC50 |
| --- | --- |
| Cc1cc(F)c(Nc2ccnc3c2C(=O)Nc2cc(CN4CCC(N(C)C)CC4)ccc2N3)cc1O [Example 211, 8-{[4-(Dimethylamino)piperidin-1-yl]methyl}-4-[(2-fluoro-5-hydroxy-4-methylphenyl)amino]-6,11-dihydro-5H-pyrido[2,3-b][1,5]benzodiazepin-5-one] | 8.71 |
| Cc1ccc(O)cc1Nc1ccnc2c1C(=O)Nc1cc(CNCCC(F)(F)F)ccc1N2 [Example 115] | 8.41 |
| Cc1cc(F)c(Nc2ccnc3c2C(=O)Nc2cc(CN4CC[C@H](N)C4)ccc2N3)cc1O [Example 215, 8-{[(3S)-3-Aminopyrrolidin-1-yl]methyl}-4-[(2-fluoro-5-hydroxy-4-methylphenyl)amino]-6,11-dihydro-5H-pyrido[2,3-b][1,5]benzodiazepin-5-one] | 8.69 |
| Cc1ccc(O)cc1Nc1ccnc2c1C(=O)Nc1cc(CNCC(C)N3CCOCC3)ccc1N2 (stereo not shown) [Example 135] | 8.24 |
| Cc1cc(F)c(Nc2ccnc3c2C(=O)Nc2cc(CN4CCC5(O)CCCCC5C4)ccc2N3)cc1O (stereo not shown) [Example 183, 4-[(2-Fluoro-5-hydroxy-4-methylphenyl)amino]-8-[(4a-hydroxyoctahydroisoquinolin-2(1H)-yl)methyl]-6,11-dihydro-5H-pyrido[2,3-b][1,5]benzodiazepin-5-one] | 8.92 |
| Cc1ccc(O)cc1Nc1ccnc2c1C(=O)Nc1cc(CNCCC(=O)N(C)C)ccc1N2 [Example 143] | 8.26 |
| Cc1cc(F)c(Nc2ccnc3c2C(=O)Nc2cc(CN4C[C@@H](O)[C@@H](O)C4)ccc2N3)cc1O [Example 210] | 8.99 |
| Cc1cc(F)c(Nc2ccnc3c2C(=O)Nc2cc(C(=O)N4CCC(O)CC4)ccc2N3)cc1O [Example 178, 4-[(2-Fluoro-5-hydroxy-4-methylphenyl)amino]-8-[(4-hydroxypiperidin-1-yl)carbonyl]-6,11-dihydro-5H-pyrido[2,3-b][1,5]benzodiazepin-5-one] | 7.83 |
| Cc1ccc(O)cc1Nc1ccnc2c1C(=O)Nc1cc(CNC(C)C(C)C)ccc1N2 (stereo not shown) [Example 157] | 8.47 |
| Cc1cc(F)c(Nc2ccnc3c2C(=O)Nc2cc(CN(C)C[C@@H](C)O)ccc2N3)cc1O [Example 201, 4-[(2-Fluoro-5-hydroxy-4-methylphenyl)amino]-8-({[(2R)-2-hydroxypropyl](methyl)amino}methyl)-6,11-dihydro-5H-pyrido[2,3-b][1,5]benzodiazepin-5-one] | 8.87 |
| CCN1CCCC1CNCc1ccc2c(c1)NC(=O)c1c(Nc3cc(O)ccc3C)ccnc1N2 (stereo not shown) [Example 92, 8-({[(1-Ethylpyrrolidin-2-yl)methyl]amino}methyl)-4-[(5-hydroxy-2-methylphenyl)amino]-6,11-dihydro-5H-pyrido[2,3-b][1,5]benzodiazepin-5-one] | 8.28 |
| Cc1cc(F)c(Nc2ccnc3c2C(=O)Nc2cc(CN4CC[C@@H](N)C4)ccc2N3)cc1O [Example 216, 8-{[(3R)-3-Aminopyrrolidin-1-yl]methyl}-4-[(2-fluoro-5-hydroxy-4-methylphenyl)amino]-6,11-dihydro-5H-pyrido[2,3-b][1,5]benzodiazepin-5-one] | 8.95 |
| Cc1cc(F)c(Nc2ccnc3c2C(=O)Nc2cc(CNC4CCC4)ccc2N3)cc1O [Example 188, 8-[(Cyclobutylamino)methyl]-4-[(2-fluoro-5-hydroxy-4-methylphenyl)amino]-6,11-dihydro-5H-pyrido[2,3-b][1,5]benzodiazepin-5-one] | 8.76 |
| Cc1ccc(O)cc1Nc1ccnc2c1C(=O)Nc1cc(CNC3CCCNC3=O)ccc1N2 (stereo not shown) [Example 139] | 8.45 |
| Cc1cc(F)c(Nc2ccnc3c2C(=O)Nc2cc(C(=O)N4CCC(CCO)C4)ccc2N3)cc1O (racemic) [Example 181, rac-4-[(2-Fluoro-5-hydroxy-4-methylphenyl)amino]-8-{[3-(2-hydroxyethyl)pyrrolidin-1-yl]carbonyl}-6,11-dihydro-5H-pyrido[2,3-b][1,5]benzodiazepin-5-one] | 8.05 |
| Cc1cc(F)c(Nc2ccnc3c2C(=O)Nc2cc(CN4CCC(C)C(O)C4)ccc2N3)cc1O (stereo not shown) [Example 59, 4-[(2-Fluoro-5-hydroxy-4-methylphenyl)amino]-8-[(3-hydroxy-4-methylpiperidin-1-yl)methyl]-6,11-dihydro-5H-pyrido[2,3-b][1,5]benzodiazepin-5-one] | 8.74 |
| Cc1ccc(Nc2ccnc3c2C(=O)Nc2cc(C#N)ccc2N3)cc1O [Example 3, 4-[(3-Hydroxy-4-methylphenyl)amino]-5-oxo-6,11-dihydro-5H-pyrido[2,3-b][1,5]benzodiazepine-8-carbonitrile] | 8.42 |
